Reference: paper PMC4127523, “A novel 11β-hydroxysteroid dehydrogenase type1 inhibitor CNX-010-49 improves hyperglycemia, lipid profile and reduces body weight in diet induced obese C57B6/J mice with a potential to provide cardio protective benefits” (BMC Pharmacology & Toxicology, 2014)

Target: T1, 11β-hydroxysteroid dehydrogenase type 1 (11β-HSD1), mouse isoform (Mus musculus, UniProt P50172)
T1 construct: gene Hsd11b1; native 11β-HSD1 in differentiated C2C12 myotubes
Experiment: Cell-based cortisone to cortisol conversion in C2C12 myotubes, LCMS/MS

T1 sequence (P50172 whole entry, canonical isoform): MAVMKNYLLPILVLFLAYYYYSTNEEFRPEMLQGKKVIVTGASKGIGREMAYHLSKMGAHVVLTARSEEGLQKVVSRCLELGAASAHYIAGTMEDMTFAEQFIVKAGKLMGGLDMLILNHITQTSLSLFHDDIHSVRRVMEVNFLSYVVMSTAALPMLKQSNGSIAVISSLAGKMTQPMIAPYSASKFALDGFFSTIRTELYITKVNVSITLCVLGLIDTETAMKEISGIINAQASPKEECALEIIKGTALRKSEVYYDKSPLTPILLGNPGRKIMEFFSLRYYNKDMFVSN

IC50: 64 nM
Substance: CNX-010-49
